Assay results taken from patent US11242337B2, “Compounds useful for treating gastrointestinal tract disorders” (Ardelyx, Inc., priority 2017, dated 2022).

Legend:
[1] = tested on: human duodenum monolayer culture; assay: Sustained inhibition of apical acid secretion in human organoid monolayer cell cultures (duodenum); format: cell-based; settings: Homo sapiens
How it was run: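 Duodenum organoid cells were plated on Transwells, differentiated with EGF/noggin/A83-01 from day 3, and dosed apically on day 6 with compound at 1 μM final (DMSO vehicle control), in duplicate wells, at 37° C, 5% CO2. Apical media pH was measured by electrode on day 8.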

NHE3 = molecular target: T1, NHE3 (Homo sapiens, UniProt P48764); assay: Cell-based assay of NHE-3 activity (pre-incubation inhibition), human; settings: human Preincubation; for pIC50: 0-30 μM test compound
T1 construct: expressed in transfected cells
T1 sequence (P48764 26-834): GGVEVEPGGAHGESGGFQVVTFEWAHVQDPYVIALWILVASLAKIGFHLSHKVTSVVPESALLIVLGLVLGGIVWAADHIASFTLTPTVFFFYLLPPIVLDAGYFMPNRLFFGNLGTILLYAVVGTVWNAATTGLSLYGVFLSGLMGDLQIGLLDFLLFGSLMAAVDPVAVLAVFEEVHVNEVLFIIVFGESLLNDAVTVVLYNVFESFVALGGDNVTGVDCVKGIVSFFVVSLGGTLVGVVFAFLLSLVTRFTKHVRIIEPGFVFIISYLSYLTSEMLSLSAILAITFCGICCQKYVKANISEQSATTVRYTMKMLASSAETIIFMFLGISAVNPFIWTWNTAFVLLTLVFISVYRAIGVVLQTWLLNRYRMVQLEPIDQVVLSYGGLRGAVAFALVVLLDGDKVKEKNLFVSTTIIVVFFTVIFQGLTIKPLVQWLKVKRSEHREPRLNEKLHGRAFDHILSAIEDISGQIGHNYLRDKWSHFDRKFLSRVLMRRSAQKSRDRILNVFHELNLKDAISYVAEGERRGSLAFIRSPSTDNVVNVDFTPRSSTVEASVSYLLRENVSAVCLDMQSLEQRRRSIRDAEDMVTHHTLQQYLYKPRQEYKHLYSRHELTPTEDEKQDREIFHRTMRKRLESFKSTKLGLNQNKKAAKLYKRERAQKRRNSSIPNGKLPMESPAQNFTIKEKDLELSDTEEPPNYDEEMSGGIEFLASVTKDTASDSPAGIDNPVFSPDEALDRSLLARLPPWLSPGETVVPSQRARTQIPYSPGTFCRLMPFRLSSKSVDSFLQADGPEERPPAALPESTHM
T1 sequence (Q99653 2-195 partner limits assumed): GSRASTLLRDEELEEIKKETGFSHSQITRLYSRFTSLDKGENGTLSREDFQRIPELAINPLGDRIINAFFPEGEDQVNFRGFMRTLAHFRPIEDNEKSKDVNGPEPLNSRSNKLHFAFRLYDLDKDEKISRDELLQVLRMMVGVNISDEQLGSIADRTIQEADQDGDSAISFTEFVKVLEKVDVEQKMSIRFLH
How it was run: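 PS120 fibroblasts stably expressing human NHE3 and NHERF2, loaded 30 min at 37 °C with 5 μM BCECF-AM in NH4Cl buffer, then acidified 10 min at room temperature in Na+-free buffer with 0–30 μM compound. Initial rate of BCECF fluorescence ratio change (FLIPR) per minute taken as Na+/H+ activity.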

| Compound | inhibition at 1 µM [1] [%] | % inhibition (NHE3) | pIC50 (NHE3) |
| --- | --- | --- | --- |
| N#Cc1cc(Cl)cc2c1C[C@H](N1CCNCC1)[C@H]2Oc1ccc(S(=O)(=O)NCCOCCOCCNC(=O)NCCCCNC(=O)NCCOCCOCCNS(=O)(=O)c2ccc(O[C@H]3c4cc(Cl)cc(C#N)c4C[C@@H]3N3CCNCC3)cc2)cc1 [Example 41, 3-[2-(2-[2-[(4-[[(1S,2S)-6-Chloro-4-cyano-2-(piperazin-1-yl)-2,3-dihydro-1H-inden-1-yl]oxy]benzene)sulfonamido]ethoxy]ethoxy)ethyl]-1-[4-([[2-(2-[2-[(4-[[(1S,2S)-6-chloro-4-cyano-2-(piperazin-1-yl)-2,3-dihydro-1H-inden-1-yl]oxy]benzene)sulfonamido]ethoxy]ethoxy)ethyl]carbamoyl]amino)butyl]urea; bis(trifluoroacetic acid)] | > 70 | C (>70%) | C (NHE3 pIC50 > 7) |
| Cc1cc(S(=O)(=O)NCCOCCOCCNC(=O)NCCCCNC(=O)NCCOCCOCCNS(=O)(=O)c2ccc(O[C@H]3c4cc(Cl)cc(C#N)c4C[C@@H]3N3CCNCC3)c(C)c2)ccc1O[C@H]1c2cc(Cl)cc(C#N)c2C[C@@H]1N1CCNCC1 [Example 42, 3-[2-(2-[2-[(4-[[(1S,2S)-6-Chloro-4-cyano-2-(piperazin-1-yl)-2,3-dihydro-1H-inden-1-yl]oxy]-3-methylbenzene)sulfonamido]ethoxy]ethoxy)ethyl]-1-[4-([[2-(2-[2-[(4-[[(1S,2S)-6-chloro-4-cyano-2-(piperazin-1-yl)-2,3-dihydro-1H-inden-1-yl]oxy]-3-methylbenzene)sulfonamido]ethoxy]ethoxy)ethyl]carbamoyl]amino)butyl]urea; bis(trifluoroacetic acid)] | > 70 | C (>70%) | C (NHE3 pIC50 > 7) |
| N#Cc1cc(Cl)cc2c1C[C@H](N1CCNCC1)[C@H]2Oc1ccc(S(=O)(=O)NCCOCCOCCNC(=O)NCCCCNC(=O)NCCOCCOCCNS(=O)(=O)c2ccc(O[C@H]3c4cc(Cl)cc(C#N)c4C[C@@H]3N3CCNCC3)c(F)c2)cc1F [Example 43, 3-[2-(2-[2-[(4-[[(1S,2S)-6-Chloro-4-cyano-2-(piperazin-1-yl)-2,3-dihydro-1H-inden-1-yl]oxy]-3-fluorobenzene)sulfonamido]ethoxy]ethoxy)ethyl]-1-[4-([[2-(2-[2-[(4-[[(1S,2S)-6-chloro-4-cyano-2-(piperazin-1-yl)-2,3-dihydro-1H-inden-1-yl]oxy]-3-fluorobenzene)sulfonamido]ethoxy]ethoxy)ethyl]carbamoyl]amino)butyl]urea; bis(trifluoroacetic acid)] | > 70 | C (>70%) | C (NHE3 pIC50 > 7) |
| Cc1cc(S(=O)(=O)N2CC[C@@H](COCCOCCNC(=O)NCCCCNC(=O)NCCOCCOC[C@@H]3CCN(S(=O)(=O)c4ccc(O[C@H]5c6cc(Cl)cc(Cl)c6C[C@@H]5N(C)C)c(C)c4)C3)C2)ccc1O[C@H]1c2cc(Cl)cc(Cl)c2C[C@@H]1N(C)C [Example 45, 3-[2-(2-[[(3R)-1-[(4-[[(1S,2S)-4,6-Dichloro-2-(dimethylamino)-2,3-dihydro-1H-inden-1-yl]oxy]-3-methylbenzene)sulfonyl]pyrrolidin-3-yl]methoxy]ethoxy)ethyl]-1-[4-([[2-(2[[(3R)-1-[(4-[[(1S,2S)-4,6-dichloro-2-(dimethylamino)-2,3-dihydro-1H-inden-1-yl]oxy]-3-methylbenzene)sulfonyl]pyrrolidin-3-yl]methoxy]ethoxy)ethyl]carbamoyl]amino)butyl]urea; bis(trifluoroacetic acid)] | > 70 | C (>70%) | C (NHE3 pIC50 > 7) |
| Cc1cc(S(=O)(=O)N2CC[C@@H](COc3ccnc(CNC(=O)NCCCCNC(=O)NCc4cc(OC[C@@H]5CCN(S(=O)(=O)c6ccc(O[C@H]7c8cc(Cl)cc(Cl)c8C[C@@H]7N(C)C)c(C)c6)C5)ccn4)c3)C2)ccc1O[C@H]1c2cc(Cl)cc(Cl)c2C[C@@H]1N(C)C [Example 49, 3-[(4-[[(3R)-1-[(4-[[(1S,2S)-4,6-Dichloro-2-(dimethylamino)-2,3-dihydro-1H-inden-1-yl]oxy]-3-methylbenzene)sulfonyl]pyrrolidin-3-yl]methoxy]pyridin-2-yl)methyl]-1-[4-([[(4-[[(3R)-1-[(4-[[(1S,2S)-4,6-dichloro-2-(dimethylamino)-2,3-dihydro-1H-inden-1-yl]oxy]-3-methylbenzene)sulfonyl]pyrrolidin-3-yl]methoxy]pyridin-2-yl)methyl]carbamoyl]amino)butyl]urea] | > 70 | C (>70%) | B (NHE3 pIC50 6-7) |
| Cc1cc(S(=O)(=O)N[C@H]2CCN(CCOCCNC(=O)NCCCCNC(=O)NCCOCCN3CC[C@H](NS(=O)(=O)c4ccc(O[C@H]5c6cc(Cl)cc(Cl)c6C[C@@H]5N(C)C)c(C)c4)C3)C2)ccc1O[C@H]1c2cc(Cl)cc(Cl)c2C[C@@H]1N(C)C [Example 52, 3-(2-[2-[(3S)-3-[(4-[[(1S,2S)-4,6-Dichloro-2-(dimethylamino)-2,3-dihydro-1H-inden-1-yl]oxy]-3-methylbenzene)sulfonamido]pyrrolidin-1-yl]ethoxy]ethyl)-1-(4-[[(2-[2-[(3S)-3-[(4-[[(1S,2S)-4,6-dichloro-2-(dimethylamino)-2,3-dihydro-1H-inden-1-yl]oxy]-3-methylbenzene)sulfonamido]pyrrolidin-1-yl]ethoxy]ethyl)carbamoyl]amino]butyl)urea] | > 70 | C (>70%) | C (NHE3 pIC50 > 7) |
| Cc1cc(S(=O)(=O)N[C@@H]2CCN(CCOCCNC(=O)NCCCCNC(=O)NCCOCCN3CC[C@@H](NS(=O)(=O)c4ccc(O[C@H]5c6cc(Cl)cc(C#N)c6C[C@@H]5N(C)C)c(C)c4)C3)C2)ccc1O[C@H]1c2cc(Cl)cc(C#N)c2C[C@@H]1N(C)C [Example 55, 3-(2-[2-[(3R)-3-[(4-[[(1S,2S)-6-Chloro-4-cyano-2-(dimethylamino)-2,3-dihydro-1H-inden-1-yl]oxy]-3-methylbenzene)sulfonamido]pyrrolidin-1-yl]ethoxy]ethyl)-1-(4-[[(2-[2-[(3R)-3-[(4-[[(1S,2S)-6-chloro-4-cyano-2-(dimethylamino)-2,3-dihydro-1H-inden-1-yl]oxy]-3-methylbenzene)sulfonamido]pyrrolidin-1-yl]ethoxy]ethyl)carbamoyl]amino]butyl)urea] | 50 to 70 | C (>70%) | – |
| Cc1cc(S(=O)(=O)N[C@H]2CCN(CCOCCNC(=O)NCCCCNC(=O)NCCOCCN3CC[C@H](NS(=O)(=O)c4ccc(O[C@H]5c6cc(Cl)cc(Cl)c6C[C@@H]5N(C)C)c(C)c4)C3=O)C2=O)ccc1O[C@H]1c2cc(Cl)cc(Cl)c2C[C@@H]1N(C)C [Example 91, 1-(2-[2-[(3S)-3-[(4-[[(1S,2S)-4,6-Dichloro-2-(dimethylamino)-2,3-dihydro-1H-inden-1-yl]oxy]-3-methylbenzene)sulfonamido]-2-oxopyrrolidin-1-yl]ethoxy]ethyl)-3-(4-[[(2-[2-[(3S)-3-[(4-[[(1S,2S)-4,6-dichloro-2-(dimethylamino)-2,3-dihydro-1H-inden-1-yl]oxy]-3-methylbenzene)sulfonamido]-2-oxopyrrolidin-1-yl]ethoxy]ethyl)carbamoyl]amino]butyl)urea] | > 70 | C (>70%) | C (NHE3 pIC50 > 7) |
